In assay [1] the test system is NCI-H460. The assay can be described thus: Cytotoxicity against human NCI-H460 cells. The format is functional, cell-based.
Assay [2] concerns A549. The assay can be described thus: Cytotoxicity against human A549 cells. It is filed as functional, cell-based.
Assay [3] in a line: Cytotoxicity against human MIAPaCa2 cells. The settings on record: MIA PaCa-2. It is filed as functional, cell-based.
The test system of assay [4] is DU-145. The assay can be described thus: Cytotoxicity against human DU145 cells. The format is functional, cell-based.
The subject of assay [5] is Saccharomyces cerevisiae. The assay can be described thus: Inhibition of Sir2p in yeast DMY2844 assessed as growth inhibition after 48 hrs.
The subject of assay [6] is Saccharomyces cerevisiae. The assay can be described thus: Inhibition of Sir2p in yeast DMY2844 assessed as growth inhibition at 800 uM after 48 hrs.
The target of assay [7] is T1, NAD-dependent protein deacetylase sirtuin-2 (Homo sapiens) (UniProt Q8IXJ6).
T1 sequence (whole entry): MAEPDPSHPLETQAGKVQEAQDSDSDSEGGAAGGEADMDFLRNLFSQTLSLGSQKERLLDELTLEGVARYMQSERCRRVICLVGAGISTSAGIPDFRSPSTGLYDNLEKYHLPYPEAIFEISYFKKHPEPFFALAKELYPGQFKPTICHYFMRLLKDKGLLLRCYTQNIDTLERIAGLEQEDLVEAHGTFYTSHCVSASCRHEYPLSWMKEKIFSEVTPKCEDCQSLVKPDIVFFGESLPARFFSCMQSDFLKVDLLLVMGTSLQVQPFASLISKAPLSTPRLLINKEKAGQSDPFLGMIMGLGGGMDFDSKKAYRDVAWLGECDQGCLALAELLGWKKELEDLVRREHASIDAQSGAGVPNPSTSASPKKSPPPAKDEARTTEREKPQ
The assay can be described thus: Inhibition of SIRT2 (unknown origin) at 1.6 mM by fluorescence assay.

Assay [8] addresses T2, NAD-dependent protein deacetylase sirtuin-1 (Homo sapiens) (UniProt Q96EB6).
T2 sequence (whole entry): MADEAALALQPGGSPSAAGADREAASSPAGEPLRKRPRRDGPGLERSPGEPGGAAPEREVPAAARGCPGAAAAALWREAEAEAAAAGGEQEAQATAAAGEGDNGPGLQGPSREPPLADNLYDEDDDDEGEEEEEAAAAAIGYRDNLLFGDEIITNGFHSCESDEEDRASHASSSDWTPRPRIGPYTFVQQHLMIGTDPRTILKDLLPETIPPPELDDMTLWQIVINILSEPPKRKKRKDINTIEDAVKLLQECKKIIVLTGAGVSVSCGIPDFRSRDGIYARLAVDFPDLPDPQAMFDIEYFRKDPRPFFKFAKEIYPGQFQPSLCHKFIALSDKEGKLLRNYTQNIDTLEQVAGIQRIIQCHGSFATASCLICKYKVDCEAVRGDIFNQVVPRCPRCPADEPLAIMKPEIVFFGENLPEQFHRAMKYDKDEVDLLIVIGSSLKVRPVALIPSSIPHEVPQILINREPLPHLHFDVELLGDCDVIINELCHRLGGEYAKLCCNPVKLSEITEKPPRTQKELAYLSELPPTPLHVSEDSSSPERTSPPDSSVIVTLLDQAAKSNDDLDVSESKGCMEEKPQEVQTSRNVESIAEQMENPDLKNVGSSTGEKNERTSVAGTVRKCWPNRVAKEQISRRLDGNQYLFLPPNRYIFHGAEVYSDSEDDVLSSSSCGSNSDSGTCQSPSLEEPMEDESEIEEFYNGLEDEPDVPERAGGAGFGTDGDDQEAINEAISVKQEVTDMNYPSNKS
The assay can be described thus: Inhibition of SIRT1 (unknown origin) at 1.6 mM by fluorescence assay.

Structures are written as SMILES. Converted amounts (≈) assume the structure as drawn. The source made the active and inactive calls. The rule behind the calls is not given here.

As a reminder, the IC50 is the concentration that inhibits the measured activity by half. The inhibition is the share of the control response that was lost under treatment.

`CC[n+]1c(C=CC=C2N(C)c3ccccc3C2(C)C)sc2ccccc21`: the IC50 in assay [1], in assay [2], in assay [3] and in assay [4] was 10 nM throughout.

`CC(C)c1ccc(C(=O)O)cc1`: the MIC in assay [5] was found to be 200 µM (≈ 32.8 µg/mL).

For the molecule `CN(C)c1ccccc1`, the inhibition entry in assay [6] was “inactive”.

For the molecule `CC(C)(C)c1ccc(C(=O)O)cc1`, the inhibition in assay [7] was determined as 28%; in assay [8], 54.8%. The MIC in assay [5] turned out to be 50 µM (≈ 8.91 µg/mL).

`Cc1ccc(C(=O)O)cc1`: in assay [5], the MIC is 800 µM (≈ 109 µg/mL).

Consider `C[N+](C)(C)c1ccc(C(=O)[O-])cc1`, for which the inhibition result in assay [6] was “inactive”.

In the case of `CN(C)c1ccc([N+](=O)[O-])cc1`, the inhibition result in assay [6] is “inactive”.

As to `O=C(O)c1ccccc1`, the inhibition entry in assay [6] is “inactive”.

For `Nc1ccc(C(=O)O)cc1`, the MIC in assay [5] was found to be 800 µM (≈ 110 µg/mL).

For the molecule `CNc1ccc(C(=O)O)cc1`, the MIC in assay [5] is 400 µM (≈ 60.5 µg/mL).

Consider `CN(C)c1ccccc1C(=O)O`, for which the inhibition result in assay [6] is “inactive”.

For the molecule `CN(C)c1ccc(Br)cc1`, in assay [6], the inhibition result is “inactive”.

As for `CN(C)c1ccc(C(N)=O)cc1`, the inhibition entry in assay [6] was “inactive”.

As to `CN(C)c1cccc(C(=O)O)c1`, the inhibition entry in assay [6] is “inactive”.

In the case of `CN(C)c1ccc(C(=O)O)cc1`, the inhibition in assay [7] was found to be 30.3%; in assay [8] it was 25.3%. Besides, the MIC in assay [5] was determined as 200 µM (≈ 33 µg/mL).

Take `CN(C)c1ccc(S(=O)(=O)O)cc1`: the inhibition result in assay [6] is “inactive”.

Consider `COC(=O)c1ccc(N(C)C)cc1`, for which the MIC in assay [5] stood at 400 µM (≈ 71.7 µg/mL).

The record behind these values is ChEMBL document CHEMBL3098037, “Evaluation of benzoic acid derivatives as sirtuin inhibitors” (Bioorg Med Chem Lett, 2014).
